From ChEMBL document CHEMBL2380261, “Analogs design, synthesis and biological evaluation of peptidomimetics with potential anti-HCV activity” (Bioorg Med Chem, 2013)

Key:
[1] = Cytotoxicity against human Huh7.5 cells assessed as cell viability after 48 hrs by Alamar blue assay
Hepatitis C virus = assay: microbe, parasite or virus in culture; assay type: functional, organism-based, Hepacivirus hominis; details: genotype 2a J6/JFH, Huh-7, 48 h
Description: Antiviral activity against Hepatitis C virus subtype 2a J6/JFH transfected in human Huh7.5 cells assessed as inhibition of viral replication after 48 hrs by luciferase reporter gene assay

[2] = Safety index, ratio of CC50 for human Huh7.5 cells to EC50 for Hepatitis C virus subtype 2a J6/JFH
[3] = Inhibition of HCV NS3 protease (1027 to 1206) after 30 mins in presence of Pep4AK; set-up: species or system Hepacivirus hominis

| SMILES | CC50 at 48 h [1] [nM] | EC50 (Hepatitis C virus) [nM] | selectivity ratio [2] | IC50 [3] [nM] |
| --- | --- | --- | --- | --- |
| CC(C)[C@H](NC(=O)CCC(=O)/C=C/c1ccccc1)C(=O)O | > 100000 | 22500 | > 4.45 | – |
| C[C@H](NC(=O)CCC(=O)/C=C/c1ccc2c(c1)OCO2)C(=O)O | 12100 | 5440 | 2.22 | – |
| CCOS(=O)(=O)/C=C/[C@H](Cc1ccccc1)NC(=O)OC(C)(C)C | 3500 | 1210 | 2.88 | – |
| CCOS(=O)(=O)/C=C/[C@H](Cc1ccccc1)NC(=O)CCC(=O)/C=C/c1ccccc1 | 1000 | 296 | – | – |
| CCOS(=O)(=O)/C=C/[C@H](Cc1ccccc1)NC(C)=O | 7910 | 2110 | 3.75 | – |
| CCOS(=O)(=O)/C=C/[C@@H](NC(C)=O)[C@@H](C)O | 27700 | 4360 | 6.36 | – |
| CC(C)C[C@H](NC(=O)[C@]1(Cc2ccsc2C(=O)O)Cc2ccccc2N1)C(=O)N[C@@H](CC(F)F)C(=O)C(=O)O | – | – | – | 700 |
| COC(=O)[C@H](C)NC(=O)CCC(=O)/C=C/c1ccccc1 | 1320 | 960 | 1.37 | – |
| COC(=O)[C@@H](NC(=O)CCC(=O)/C=C/c1ccccc1)C(C)C | 1480 | 381 | 3.88 | – |
| COC(=O)[C@H](C)NC(=O)CCC(=O)/C=C/c1cccnc1 | 2110 | 900 | 2.34 | – |
| COC(=O)[C@@H](NC(=O)CCC(=O)/C=C/c1cccnc1)C(C)C | 1570 | 1140 | 1.38 | – |
| COC(=O)[C@H](C)NC(=O)CCC(=O)/C=C/c1ccc2c(c1)OCO2 | 1110 | 347 | 3.19 | – |
| COC(=O)[C@@H](NC(=O)CCC(=O)/C=C/c1ccc2c(c1)OCO2)C(C)C | 1390 | 682 | 2.83 | – |
| CC(C)(C)NC(=O)N[C@H](C(=O)N1C[C@H]2[C@@H]([C@H]1C(=O)NC(CC1CCC1)C(=O)C(N)=O)C2(C)C)C(C)(C)C (stereo partly drawn) [BOCEPREVIR] | > 100000 | 800 | – | – |
